SMILES strings stand for the structures.

The source of these data is ChEMBL document CHEMBL6103564, “Selective Degradation of TEADs by a PROTAC Molecule Exhibited Robust Anticancer Efficacy In Vitro and In Vivo” (J Med Chem, 2025).

Data set [1] in a line: in vivo. As to conditions: ICR, mouse, po, 5 mg/kg.
Data set [2] is described as follows: in vivo. The note with it: ICR, mouse, po, 5 mg/kg. The source holds these as a separate data set.
A short description of data set [3]: in vivo. The note with it: ICR, mouse, po, 5 mg/kg. The source holds these as a separate data set.
The nature of data set [4]: in vivo. As to conditions: ICR, mouse, ip, 10 mg/kg.
Data set [5] is described as follows: in vivo. The note with it: ICR, mouse, ip, 10 mg/kg. This is another data set of the same source.
The nature of data set [6]: in vivo. The note with it: ICR, mouse, ip, 10 mg/kg. This is another data set of the same source.
Data set [7] in a line: in vivo. The note with it: ICR, mouse, iv, 5 mg/kg.
The nature of data set [8]: in vivo. The note with it: ICR, mouse, po, 10 mg/kg.
Data set [9] can be described thus: in vivo. As to conditions: ICR, mouse, iv, 5 mg/kg. This is another data set of the same source.
Data set [10] in a line: in vivo. The note with it: ICR, mouse, iv, 5 mg/kg. The source holds these as a separate data set.
Data set [11] is described as follows: in vivo. As to conditions: ICR, mouse, iv, 5 mg/kg. The source holds these as a separate data set.
Data set [12] can be described thus: in vivo. The note with it: ICR, mouse, iv, 5 mg/kg. This is another data set of the same source.
A short description of data set [13]: in vivo. As to conditions: ICR, mouse, iv, 5 mg/kg. The source holds these as a separate data set.
Data set [14] in a line: in vivo. The note with it: ICR, mouse, ip, 10 mg/kg. The source holds these as a separate data set.
Data set [15] in a line: in vivo. As to conditions: ICR, mouse, iv, 5 mg/kg. The source holds these as a separate data set.
Data set [16] is described as follows: in vivo. The note with it: ICR, mouse, ip, 10 mg/kg. The source holds these as a separate data set.
The nature of data set [17]: in vivo. As to conditions: ICR, mouse, po, 5 mg/kg. This is another data set of the same source.

Turning to `COCCOc1ccc(C(N)=O)c(-c2c(Cl)ccc3c2C[C@@](CNCCC2CCN(c4ccc5c(c4)C(=O)N(C4CCC(=O)NC4=O)C5=O)CC2)(c2ccccc2)O3)c1F` (some centres not stated), the figures for the bioavailability in the data set “in vivo [1]” and in “in vivo [8]” were 0.44% and 121%, respectively. For the same molecule, the Cmax (as a rule, the peak of the concentration-time curve) in the data set “in vivo [2]” was found to be 7.86 ng/mL; in the data set “in vivo [16]” it was 1160 ng/mL. The exposure AUC(0-t) (as a rule, exposure summed from dosing to a finite time, without extrapolation to infinity) was 5.39 ng·h/mL in the data set “in vivo [3]”, 2960 ng·h/mL in “in vivo [4]” and 1220 ng·h/mL in the data set “in vivo [11]”. Moreover, the half-life (usually the time needed for the level to fall by half in the phase considered) is 2.68 h in “in vivo [5]” and 1.94 h in the data set “in vivo [12]”. Further, the mean residence time MRT (in general, the average time that molecules of a dose stay in the body) in “in vivo [6]” amounted to 2.76 h; in “in vivo [7]” it was 0.69 h; in the data set “in vivo [17]”, 0.51 h. Besides, the values for the Vd in “in vivo [9]” and in “in vivo [10]” were 3.79 L/kg and 11.5 L/kg, respectively. In addition, the clearance – broadly, the rate of elimination divided by the concentration – in the data set “in vivo [13]” amounted to 70.6 mL/min/kg. The AUC(0-inf) (as a rule, total exposure, with the tail of the curve extrapolated) in “in vivo [14]” was determined as 3000 ng·h/mL; in the data set “in vivo [15]”, 1240 ng·h/mL.
